# PMC6539495, “Anti-Cancer Activity of Novel Dihydrotestosterone-Derived Ring A-Condensed Pyrazoles on Androgen Non-Responsive Prostate Cancer Cell Lines” (International Journal of Molecular Sciences, 2019)
# Columns and labels:
# MRC-5 cells = system: MRC-5 cells; parameters: method as in PMID 28595942; details: assessed previously; cited from earlier work
# PC-3 cells [1] = system: PC-3 cells; parameters: method as in PMID 28595942; details: assessed previously; cited from earlier work
# [2] = system: caspase 3 mRNA in PC-3 cells; assay: RT-qPCR of caspase 3 mRNA; type: cell-based, human; details: PC-3, 48 h; 4e, 4j 5 µM; cisplatin 200 µM; GAPDH reference
# Description: (§1) PC-3 cells were seeded at 2 × 10^6 cells/well density in 6 well plates. On the following day cells were treated with 5 µM of either compound 4e or 4j or with 200 µM of cisplatin. Cells were collected 48-hours post-treatment and total cellular RNA was isolated using RNeasy® Mini Kit (QIAGEN, Hilden, Germany) according to the manufacturer’s recommendation. RNA (2 µg) was reverse transcribed (TaqMan® Reverse Transcription kit, Applied Biosystems, Foster City, CA, USA) in 50 µL total volume. PCR reactions were performed on PicoReal™ Real-time PCR (Thermo Scientific, Walthan, MA, USA) using SYBRGreen qPCR Master Mix (Thermo Scientific) with an input of 1 µL cDNA. Each primer (Table 3) was used at 200 nM concentration. Relative transcript levels were determined by the ΔΔCt analysis using GAPDH as reference gene. Experiments were repeated three times with three biological replicates.
# Bax mRNA in PC-3 cells = assay: RT-qPCR of Bax mRNA; type: cell-based, human; details: PC-3, 48 h; 4e, 4j 5 µM; cisplatin 200 µM; GAPDH reference
# Description: as §1
# DU 145 cells = system: DU 145 cells; parameters: method as in PMID 28595942; details: assessed previously; cited from earlier work
# PC-3 cells [3] = assay: Annexin V/PI apoptosis detection assay (flow cytometry); type: cell-based, human; details: PC-3, 200 µM cisplatin, 48 h
# Description: PC-3 cells were seeded at 2 × 10^6 cells/well density in 6-well plates. On the following day cells were treated with 5 µM of either compound 4e or 4j or with 200 µM of cisplatin (Accord Healthcare Ltd., Middlesex, UK). After 48-hour treatment, cells were collected and a Dead Cell Apoptosis Kit containing AnnexinV-FITC and propidium iodide (Life Technologies-Hungary, Budapest, Hungary) was used according to the manufacturer’s recommendation. Fluorescence intensities of at least 10,000 cells/sample were measured by FACSCalibur™ (BD Biosciences, Franklin Lakes, CA, USA) and data were analyzed by FlowJo V10 software (BD Biosciences, Franklin Lakes, NJ, USA). Experiments were repeated three times using triplicates.
smiles,measurement,setting,value
"N.N.[Cl][Pt][Cl] [cisplatin, reference compound]",IC50,MRC-5 cells,237.3 ± 1.16 µM
same,IC50,PC-3 cells [1],230.9 ± 1.37 µM
same,caspase 3 mRNA expression level compared to untreated control,[2],significantly increased
same,Bax mRNA expression level compared to untreated control,Bax mRNA in PC-3 cells,significantly increased
same,IC50,DU 145 cells,126.8 ± 1.18 µM
same,"apoptosis induction (annexin V/PI), in words",PC-3 cells [3],prominent apoptosis
